Entries after “also recorded” stand apart in the source; their conditions may differ. In the oligonucleotide strings, read from the 5' end, every base follows the letter of its sugar. An asterisk marks phosphorothioate; unmarked linkages are phosphodiester. Other units and linkages are bracketed, terminal groups are in braces. A string of capitals states the bases alone. d = 2'-deoxy (DNA)
Legend:
Format in all cases: cell-based
GFP mRNA = assay: GFP fluorescence intensity in GFP-expressing Hela-141 cells; conditions: siGFP compared to siLuc, trigger 30 to 60 nM
Text: A GFP fluorescent protein-expressing plasmid (used in Chen L L, DeCerbo J N, Carmichael G G. 2008. Alu element-mediated gene silencing. EMBO J 27: 1694-1705) was transfected into Hela-141 cells to prepare GFP-expressing Hela-141 cells. As stated in Reference Example 1, a linear miRNA trigger (LP; GFP_141_141), which can target GFP mRNA (=complementarily bind to GFP mRNA to regulate the expression of GFP) and complementarily bind to miR-141, and siRNAs which target GFP and Luc (Luciferase), respectively, were synthesized in Bioneer Inc. Sequences of the LP and siRNAs and types and positions of chemical modifications in each sequence are listed in Table 8, below.
Above all, siLuc and siGFP were transfected into the GFP-expressing Hela-141 cells which were then measured for fluorescence intensity on an ELISA reader. […] In addition, the linear miRNA trigger (GFP(1)_141_141) was transfected into the GFP-expressing Hela-141 cells which were then measured for fluorescence intensity. The result is depicted in FIG. 8. For the transfection, the GFP plasmid and GFP_141_141 were used at a concentration of 0.5 to 1 μg/ml and 30 to 60 nM, respectively.

miR-155 = miR-155 expression after treatment with AML therapeutic agents; conditions: FLT3-ITD mutated AML cell line (NOLM-14); IC50 dose, 37° C., 72 hours
Protocol: The FLT3-ITD mutated AML cell line (NOLM-14) was treated with an IC50 dose of cytarabine, azacitidine, decitabine, venetoclax, or gilteritinib, which is used as standard therapeutic agents for AML, at 37° C. for 72 hours, followed by measuring expression levels of miR-155.

cells = assay: Cytotoxicity (CCK-8 cell viability) of chemically modified miRNA triggers
Protocol: (§1) The miRNA triggers were assayed for cytotoxicity and apoptosis induction, using the CCK-8 (Cell Counting Kit-8) (Dojindo, Kumamoto, Japan) according to the manufacturer's instruction. Cells were incubated in 96-well plates (5×10^3 cells/well) at 37° C. for 24 hours under a 5% CO2 atmosphere, followed by transfection. Three days after transfection, the medium was removed. A 10-fold dilution of CCK-8 solution in DMEM was added to the cells which were then incubated at 37° C. for 2 hours. After incubation, absorbance was read at 450 nm on Tecan Infinite M200 pro microplate reader (Mnnedorf, Switzerland).
In addition, FPS HP and 2′-OMe HP, which were the most resistant to degradation in biological samples, were analyzed for cytotoxicity. In this regard, the HP in which the entire nucleotides of miRNA trigger (LP) were modified with PS (expressed as PS in Table 6 and FIG. 6), the linear probe in which the entire nucleotides of miRNA trigger (LP) were modified with 2′-O-Me (expressed as 2′O-me in Table 6 and FIG. 6), the control DNA LP (expressed as DNA in Table 6 and FIG. 6), or siRNA was transfected into cells which were then measured for cell viability using the method of Reference Example 9. The result is depicted in FIG. 6. […]

Hela cells = assay: Cell viability / apoptosis (CCK-8) in Hela cells
Protocol: as §1
(§2) The linear miRNA triggers or siRNAs (siLuc and siMcl-1) prepared above were transfected into Hela, Hela-141, and Hela-200c cells which were then measured for cell viability. The results are depicted in FIG. 15.
(§3) The hairpin miRNA triggers prepared above were transfected into Hela and Hela-141 cells which were then assayed for apoptosis. As a control, the siRNA (siMcl-1; Table 14) which can repress the expression of mcl-1 was transfected to Hela and Hela-141 cells and measured for apoptotic activity.

[1] = system: MCF-7 breast cancer cells; assay: Cell viability / apoptosis in MCF-7; conditions: single siRNA, final concentration 60 nM
Protocol: as §1
An siRNA targeting bcl-2, bcl-xL, or mcl-1 was transfected into MCF-7 breast cancer cells and PANC-1 pancreatic cancer cells. By using qRT-PCR, establishment was made of a condition under which the expression of each target gene is decreased by 80% or more (transfection was performed at a concentration of 60 nM with the aid of Lipofectamine). As a negative control, a Luc (Luciferase)-targeting siRNA (siLuc) was used. Under the same condition of decreasing the expression of each target gene by 80% or more, the cells transfected with the siRNAs were measured for apoptosis, and the results are depicted in FIGS. 14a and 14b.
Linear miRNA triggers that could bind to miR-141 or let7f and target bcl-xL or mcl-1 were prepared and transfected alone or in combination into the breast cancer cell line MCF-7 which was then measured for cell viability. Every nucleotide of the triggers and controls was chemically modified with 2′-OMe.
First, MCF-7 was measured for cell viability after treatment with siMCL-1, siBCL-xL, and siBCL-2 (FIG. 48). […] The final concentration of the siRNAs was 60 nM.
Next, examination was made of the apoptosis when two or more genes were regulated together. MCF-7 was measured for cell viability after treatment with siMCL-1+siBCL-xL, siMCL-1+siBCL-2, siBCL-xL+siBCL-2, and siMCL-1+siBCL-xL+siBCL-2 (FIG. 49).
Finally, experiments under all the conditions (individual and simultaneous regulation) were conducted simultaneously so as to compare effects thereof. […]

Hela-141 cells = assay: Cell viability / apoptosis (CCK-8) in Hela-141 cells; conditions: Hela-141 cells
Protocol: as §1, §2, §3

Hela-200c cells = assay: Cell viability / apoptosis (CCK-8) in Hela-200c cells
Protocol: as §1, §2

Bcl-xL = assay: Western blot of Bcl-xL protein; conditions: MDA-MB-453
Protocol: miRNA triggers were transfected into cells in the same manner as in Reference Example 4. After 72 hours, the cells were collected using a cell scraper and lysed with a RIPA buffer (NaCl 150 mM, EDTA 5 mM, Tris 50 mM, NP-40 1.0%, sodium deoxycholate 0.5%, SDS 0.1%). The cell lysate was sonicated 15 times, each for 20 sec, with a halt for 30 sec every sonication. Following centrifugation at 5,000 g for 5 min, the supernatant was taken and used to extract proteins therefrom. A total of 30-40 μg of protein sample was separated in 10-15% SDS-PAGE gel and transferred onto a PVDF membrane through a semi-dry blotting system. The membrane was blocked for 1 hour in 5% skimmed milk and incubated for 2 hours with a 1,000-fold dilution of a primary antibody in, 1% skimmed milk. […] The membrane incubated with the secondary antibody was washed three times with 1×PBST for 10 min each wash, and then reacted with Clarity Western ECL Substrate (#1705061, Bio-Rad), after which images were obtained and analyzed using ChemiDoc (Bio-rad, Hercules, USA).
The cells transfected with the selected miRNA triggers were measured for protein expression levels of the target Bcl-xL and the apoptotic marker cleaved PARP through western blotting, and the results are depicted in FIG. 32b. […]

[2] = system: breast cancer cell line MDA-MB-453; assay: Cell viability / apoptosis in MDA-MB-453; conditions: MDA-MB-453 (does not express miR-222)
Protocol: as §1
(§4) The selected linear miRNA triggers (bcl-xL(1)_22_2222 and bcl-xL(2)_222_222) were transfected into the breast cancer cell line MDA-MB-453 to which miR-222 is not endogenous. Cell viability, and the mRNA and protein expression levels of the target gene (bcl-xL) were measured and the results are depicted in FIGS. 33a to 33c.
The hairpin miRNA triggers prepared above were transfected into MDA-MB-231 and MDA-MB-453 cells which were then measured for cell viability. The results are depicted in FIG. 37.
The MCL-1-222-222 miRNA trigger, which utilizes miR-222 to regulate MCL-1 gene, and the BCL-xL-let7f-let7f miRNA trigger, which utilizes miR-let7f to regulate BCL-xL gene, were administered to MDA-MB-231 and MDA-MB-453.
Next, apoptosis was examined when the two types of miRNA triggers were co-administered to cells. The total concentration of the two triggers was 120 nM, which was the same as for individual miRNAs. The results are depicted in FIG. 47.

BCL-xL mRNA = assay: bcl-xL mRNA expression / gene regulation efficiency; conditions: MDA-MB-453
Protocol: In the same manner as in Reference Example 4, miRNA triggers were transfected into cells. After 48 hours, total RNA was extracted using TRIzol (Thermo Fisher Scientific) according to the manufacturer's instruction. The purified RNA was treated with DNase I and then reverse transcribed in the presence of RevertAid reverse transcriptase (Thermo Fisher Scientific), with random hexamers (Thermo Fisher Scientific) serving as primers. For use in amplification of target genes, primers for target genes were added, together with the cDNA, to the SYBR Green PCR master mix (Thermo Fisher Scientific). RT-qPCR was conducted on a StepOnePlus real-time PCR system. Cq values obtained from this analysis was quantitatively analyzed based on the 2^−ΔΔC(t) method.
as §4
After treatment with miRNA triggers, mRNA expression levels of the target gene BCL-xL were measured. […]

Molecule: siGFP: siRNA which targets GFP; SEQ ID NO 44 (UUAUGUUUCAGGUUCAGGG; RNA, backbone not given here) [reference compound]
- GFP fluorescence intensity (GFP mRNA): significantly reduced fluorescence intensity

Molecule: Nc1ncn([C@@H]2O[C@H](CO)[C@@H](O)[C@H]2O)c(=O)n1 [azacitidine]
- miR-155 expression (miR-155): did not repress miR-155 express

Molecule: 2′-O-Me: linear probe, entire nucleotides modified with 2′-O-Me; SEQ ID NO 38 (UCGAAGUACUCAGCGUAAGUUCGAAGUACUCAGCGUAAGUUCGAAGUACUCAGCGUAAGU; all 2'-O-methyl, backbone not given here)
- cell viability versus non-transfected negative control (NT) (cells; CCK-8): not significantly different in viability from the negative control

Molecule: Nc1ccn([C@@H]2O[C@H](CO)[C@@H](O)[C@@H]2O)c(=O)n1 [cytarabine]
- miR-155 expression (miR-155): did not repress miR-155 express

Molecule: PS: miRNA trigger (LP), entire nucleotides modified with PS, random sequences; SEQ ID NO 37 (dT*dC*dG*dA*dA*dG*dT*dA*dC*dT*dC*dA*dG*dC*dG*dT*dA*dA*dG*dT*dT*dC*dG*dA*dA*dG*dT*dA*dC*dT*dC*dA*dG*dC*dG*dT*dA*dA*dG*dT*dT*dC*dG*dA*dA*dG*dT*dA*dC*dT*dC*dA*dG*dC*dG*dT*dA*dA*dG*dT)
- cell viability (cells; transfected cells, CCK-8, random sequences): less than 40%

Molecule: siMcl-1: siRNA targeting mcl-1; SEQ ID NO 64 (AAAUUCGAUACUUCCUUCG; listed as RNA, chemistry not given here) [reference compound]
- apoptosis / cell viability (Hela cells): induced apoptosis; also recorded: apoptotic effect
- apoptosis (cell viability) [1]: apoptosis was detected; also recorded: greatest apoptosis
- apoptosis / cell viability (Hela-141 cells): induced apoptosis; also recorded: apoptotic effect
- apoptosis / cell viability (Hela-200c cells): induced apoptosis

Molecule: bcl-xL(2)_222_222: linear miRNA trigger binding miR-222 and knocking down bcl-xL; SEQ ID NO 107 (ACCCAGUAGCCAGAUGUAGCUACCCAGUAGCCAGAUGUAGCUUACCUGCCAGCCUCCUU; all 2'-O-methyl, backbone not given here)
- protein expression level of target bcl-xL (Bcl-xL): did not significantly change
- cell viability [2]: did not significantly change
- mRNA expression level of target bcl-xL (BCL-xL mRNA): did not significantly change

Molecule: siBcl-xL: siRNA targeting bcl-xL; SEQ ID NO 63 (UUGGUCCCUCAGUAUGGUC; listed as RNA, chemistry not given here)
- apoptosis (cell viability) [1]: apoptosis was detected

B1: GFP(1)_141_141: linear miRNA trigger targeting GFP mRNA and binding miR-141; SEQ ID NO 41 (nucleic acid)
chain: CCAUCUUUACCUCACAGUGUUACCAUCUUUACCUCACAGUGUUAUUAUGUUUCAGGUUCAGGGGGA
modifications: all 2'-O-methyl, backbone not given here
- GFP fluorescence intensity (GFP mRNA): reduced GFP fluorescence intensity in a dose-dependent manner

Source: patent publication US20230193262A1, “Nucleic acid molecules capable of modulating target gene expression and uses thereof” (KOREA ADVANCED INSTITUTE OF SCIENCE AND TECHNOLOGY, priority 2021, published 2023)
